Patent publication US7300937B2, “Derivatives of cyano-aryl (or cyanoheteroaryl)-carbonyl-piperazinyl-pyrimidines, their preparation and application as medication” (Laboratorios del Dr. Esteve, S.A., priority 2001, dated 2007)
Where a name gives a salt, the structure may show the parent alone. Marks after values point to notes of the source that are not given here.

Legend:
[1] = tested on: convulsions induced by IV injection of pentamethylentetrazol (cardiazol); test: Anticonvulsive activity in mice (convulsions due to cardiazol); format: in vivo, mouse; conditions: for ED50: Mus musculus; for % Activity: mice, cardiazol 45 mg/kg IV
mice = test: Sedative activity in mice (behaviour observation); format: in vivo, mouse; set-up: unit not given here; conditions: 80 mg/kg i.p.
Description: The sedative activity was studied by observing the animals' behaviour after intraperitoneal (i.p.) administration of a dose of 80 mg/kg. This observation was conducted at different times, allowing to know the sedative effect and its duration.

[2] = tested on: body tone and abdominal tone of the rats; test: Myorelaxant activity in the IRWIN test in rats; format: in vivo, rat; conditions: 80 mg/kg ip
Description: The activity as muscular relaxant of the products of the invention was studied, by evaluating the effect on body tone and abdominal tone of the rats, following the method described by S. IRWIN (Gordon Res. Conf. on Medicinal Chem.,1959. p.133). The rats received the products under study in a dose of 80 mg/kg ip, and at several times after administration (½, 1, 2, 3, 4 and 5 hours) the body and abdominal tone were evaluated, comparing muscle tension to that of the control animals.

dog = test: Anaesthetic activity in dogs (IV infusion); conditions: IV infusion 5 mg/ml/minute until fully anaesthetised
Description: A saline solution of the product in study was perfused by means of a perfusion pump in a concentration and rate of 5 mg/ml/minute, through a cannula inserted in a vein of the front leg.

mouse = test: Anaesthetic activity in mice (IV, loss of three reflexes); conditions: for time of anaesthesia: average time
Description: The anaesthetic activity was determined after intravenous (IV) administration of the product under study in three different doses (15, 10 and 5 mg/kg) in the caudal vein of the mouse. The percentage of anaesthetised animals was recorded and the average time of anaesthesia calculated. Mice were considered to be anaesthetised when losing the three reflexes: positional reflex, response to painful stimulus reflex (prick in the tail) and palpebral reflex.

rat = test: Anaesthetic activity in rats (IV infusion to maintain full anaesthesia for 1 hour); conditions: IV infusion required to maintain full anaesthesia for 1 hour
Description: In this test, through the cannulated caudal vein of a rat was perfused a solution of the products under study with a concentration of 10 mg/kg. The rate of perfusion was varied to keep the rats anaesthetised for 1 hour.

| Structure (SMILES) | ED50 [1] [mg/kg] | % Activity ([1]; 20 mg/kg i.p.) [%] | % Activity ([1]; 40 mg/kg i.p.) [%] | % Activity ([1]; 80 mg/kg i.p.) [%] | Sedative activity (mice; 30′) | Sedative activity (mice; 1 h) | Sedative activity (mice; 2 h) | Sedative activity (mice; 3 h) | Sedative activity (mice; 4 h) | Sedative activity (mice; 5 h) | Sedative activity (mice; 24 h) | % muscular relaxation ([2]; after 1 h.) [%] | % muscular relaxation ([2]; after 2 h.) [%] | % muscular relaxation ([2]; after 3 h.) [%] | % muscular relaxation ([2]; after 4 h.) [%] | % muscular relaxation ([2]; after 5 h.) [%] | % muscular relaxation ([2]; after ½ h.) [%] | Anaesthetic dose (dog) | % anaesthetised (mouse; 5 mg/kg iv) [%] | % anaesthetised (mouse; 10 mg/kg iv) [%] | other results |
| --- | --- | --- | --- | --- | --- | --- | --- | --- | --- | --- | --- | --- | --- | --- | --- | --- | --- | --- | --- | --- | --- |
| CCOc1ccnc(N2CCN(C(=O)c3ccccc3C#N)CC2)n1 (as salt: HCl) [Example 4, 2-[4-(2-cyanobenzoyl)-1-piperazinyl]-4-ethoxypyrimidine hydrochloride] | – | – | – | – | – | – | – | – | – | – | – | – | – | – | – | – | – | – | – | – | melting point: 147 to 151 °C |
| CCOc1ccnc(N2CCN(C(=O)c3ccccc3C#N)CC2)n1 [Example 4, 2-[4-(2-cyanobenzoyl)-1-piperazinyl]-4-ethoxypyrimidine hydrochloride] | 25.1 | 40 | 69 | 87 | 90 | 75 | 75 | 35 | 0 | 0 | 0 | 100 | 100 | 70 | 33 | 0 | 100 | 10.1 mg/kg | 0 | 100 | time of anaesthesia (mouse; 10 mg/kg iv): 2.6 ′; % anaesthetised (mouse; 15 mg/kg iv): 100%; time of anaesthesia (mouse; 15 mg/kg iv): 5.8 ′; Total dose (rat): 56.8 mg/kg |
| CC(C)c1cccc(C(C)C)c1O [Propofol, reference compound] | 32.5 | 33 | 46 | 100 | – | – | – | – | – | – | – | 100 | 70 | 0 | 0 | 0 | 100 | 21.6* mg/kg | 0 | 80 | time of anaesthesia (mouse; 10 mg/kg iv): 1 ′; % anaesthetised (mouse; 15 mg/kg iv): 80%; time of anaesthesia (mouse; 15 mg/kg iv): 1.3 ′; Total dose (rat): 67 mg/kg |
| Cc1ccc(-c2nc3ccc(C)cn3c2CC(=O)N(C)C)cc1 [Zolpidem, reference compound] | – | – | – | – | 100 | 90 | 30 | 0 | 0 | 0 | 0 | – | – | – | – | – | – | – | – | – | – |
